Measured values taken from patent publication US5409933A, “Quinoline derivatives and processes for preparing the same” (priority 1993, dated 1995).
Counter-ions that a name gives are not always drawn. Like-named read-outs stand apart in the source and are kept apart here.

Columns and labels:
Experiment in all cases: In Vitro Anti-Bacterial Activity Test (MIC, agar dilution)
Format in all cases: cell-based
[1] = system: Enterobacter cloacae 1321E
Outline: (§1)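 Ciprofloxacin was the control antibacterial in this Muller-Hinton agar dilution test. Cultures of 10^7 C.F.U./ml grew for 18 hours at 37° C., and inhibition of growth set the MIC.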

Enterobacter cloacae P99 = settings: Enterobacter cloacae, P99, 18 h
Outline: (§2)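 Each strain, at 10^7 C.F.U./ml, was spotted onto Muller-Hinton agar carrying serial compound dilutions. Growth after an 18-hour incubation at 37° C. defined the minimum inhibitory concentration.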

Escherichia coli 078 = system: Escherichia coli 078
Outline: as §1

Escherichia coli 1507E = settings: Escherichia coli, 1507E, 18 h, Muller-Hinton agar, 37° C.
Outline: as §1

Escherichia coli DC0 = settings: Muller-Hinton agar, 37° C., 18 hours, read-out: MIC
Outline: as §1

Escherichia coli DC2 = settings: Escherichia coli, DC2, 18 h
Outline: as §1

Escherichia coli TEM = settings: Escherichia coli, 18 h, Muller-Hinton agar, 37° C.
Outline: as §2

[2] = system: Klebsiella aerogenes 1522E; settings: Klebsiella aerogenes, 1522E, 18 h, Klebsiella aerogenes 1522E; Muller-Hinton agar, 37° C., 18 hours; read-out: MIC
Outline: as §1

Klebsiella oxytoca 1082E = settings: Klebsiella oxytoca 1082E; Muller-Hinton agar, 37° C., 18 hours; read-out: MIC
Outline: as §1

[3] = system: Pseudomonas aeruginosa 1592E; settings: Muller-Hinton agar, 37° C., 18 hours, read-out: MIC
Outline: as §1

[4] = system: Pseudomonas aeruginosa 1771M; settings: Pseudomonas aeruginosa, 1771M, 18 h, Muller-Hinton agar, 37° C.
Outline: as §1

[5] = system: Pseudomonas aeruginosa 1771; settings: Pseudomonas aeruginosa 1771; Muller-Hinton agar, 37° C., 18 hours; read-out: MIC
Outline: as §1

[6] = system: Pseudomonas aeruginosa 9027; settings: Muller-Hinton agar, 37° C., 18 hours, read-out: MIC
Outline: as §1

Salmonella typhimurium = settings: Salmonella enterica; Salmonella typhimurium; Muller-Hinton agar, 37° C., 18 hours; read-out: MIC
Outline: as §1

[7] = system: Staphylococcus aureus 285
Outline: as §1

[8] = system: Staphylococcus aureus 503; settings: Staphylococcus aureus 503; Muller-Hinton agar, 37° C., 18 hours; read-out: MIC
Outline: as §1

[9] = system: Staphylococcus aureus SG511; settings: Staphylococcus aureus SG511; Muller-Hinton agar, 37° C., 18 hours; read-out: MIC
Outline: as §1

[10] = system: Streptococcus faecium MD8b; settings: Enterococcus faecium, Muller-Hinton agar, 37° C., 18 hours, read-out: MIC
Outline: as §1

[11] = system: Streptococcus pyogenes 308A; settings: Muller-Hinton agar, 37° C., 18 hours, read-out: MIC
Outline: as §1

[12] = system: Streptococcus pyogenes 77A
Outline: as §1

[13] = Enterobacter cloacae 1321E, Muller-Hinton agar, 37° C., 18 hours, read-out: MIC
[14] = Staphylococcus aureus, 285, 18 h, Staphylococcus aureus 285, Muller-Hinton agar, 37° C., 18 hours, read-out: MIC
[15] = Streptococcus pyogenes 77A, Muller-Hinton agar, 37° C., 18 hours, read-out: MIC
[16] = Escherichia coli 078, Muller-Hinton agar, 37° C., 18 hours, read-out: MIC
[17] = Streptococcus pyogenes, 77A, 18 h

| SMILES | MIC [1, 13] [µg/mL] | MIC (Enterobacter cloacae P99) [µg/mL] | MIC (Escherichia coli 078; Escherichia coli, 078, 18 h) [µg/mL] | MIC (Escherichia coli 1507E) [µg/mL] | MIC (Escherichia coli DC0) [µg/mL] | MIC (Escherichia coli DC2) [µg/mL] | MIC (Escherichia coli TEM) [µg/mL] | MIC [2] [µg/mL] | MIC (Klebsiella oxytoca 1082E) [µg/mL] | MIC [3] [µg/mL] | MIC [4] [µg/mL] | MIC [5] [µg/mL] | MIC [6] [µg/mL] | MIC (Salmonella typhimurium) [µg/mL] | MIC [7, 14] [µg/mL] | MIC [8] [µg/mL] | MIC [9] [µg/mL] | MIC [10] [µg/mL] | MIC [11] [µg/mL] | MIC [12, 15] [µg/mL] | further results |
| --- | --- | --- | --- | --- | --- | --- | --- | --- | --- | --- | --- | --- | --- | --- | --- | --- | --- | --- | --- | --- | --- |
| Cc1c(F)c(N2CCNC(C)C2)cc2c1c(=O)c(C(=O)C[N+](=O)[O-])cn2C1CC1 (centres unmarked) [Example 51, 1-cyclopropyl-5-methyl-6-fluoro-7-(3-methylpiperazin-1-yl)-3-(2-nitroacetyl)-1,4-dihydro-4-oxoquinoline hydrochloride] | 0.025 | 0.025 | 0.025 | 0.049 | 0.781 | 0.195 | 0.049 | 0.195 | 0.013 | 0.391 | 0.195 | 0.781 | 0.781 | 0.025 | 0.098 | 0.098 | 0.195 | 0.391 | 0.781 | 0.391 | – |
| O=C(C[N+](=O)[O-])c1cn(C2CC2)c2cc(N3CCNCC3)c(F)cc2c1=O [Example 4, 1-cyclopropyl-6-fluoro-7-(piperazin-1-yl)-3-(2-nitroacetyl)-1,4-dihydro-4-oxoquinoline hydrochloride] | < 0.002 | 0.007 | – | 0.007 | 0.195 | 0.391 | 0.013 | 0.013 | < 0.002 | 0.195 | 0.098 | 0.195 | 0.195 | 0.007 | – | 0.781 | 0.195 | 0.781 | 3.12 | – | MIC (Escherichia coli 078; [16]): < 0.002 µg/mL; MIC ([7]; Staphylococcus aureus 285, Muller-Hinton agar, 37° C., 18 hours, hydrochloride): 0.391 µg/mL; MIC [12, 17]: 0.781 µg/mL |
| CC(=O)CC(=O)c1cn(C2CC2)c2c(Cl)c(N3CCC(N)C3)c(F)cc2c1=O (centres unmarked) [Example 37, 1-cyclopropyl-6-fluoro-8-chloro-7-(3-aminopyrrolidin-1-yl)-3-(2-acetoacetyl)-1,4-dihydro-4-oxoquinoline hydrochloride] | 0.195 | 0.195 | 0.391 | 0.195 | 0.781 | 0.391 | 0.098 | 0.391 | 0.195 | 3.12 | 0.781 | 1.56 | 1.56 | 0.195 | 0.781 | 0.781 | 0.781 | 3.12 | 1.56 | 3.12 | – |
| COc1c(N2CCC(N)C2)c(F)cc2c(=O)c(C(=O)C[N+](=O)[O-])cn(C3CC3)c12 (centres unmarked) [Example 49, 1-cyclopropyl-6-fluoro-8-methoxy-7-(3-aminopyrrolidin-1-yl)-3-(2-nitroacetyl)-1,4-dihydro-4-oxoquinoline hydrochloride] | 0.025 | 0.049 | 0.049 | 0.098 | 0.391 | 0.098 | 0.049 | 0.098 | 0.013 | 1.56 | 0.781 | 3.12 | 3.12 | 0.049 | 0.098 | 0.098 | 0.098 | 0.195 | 0.391 | 0.098 | – |
| NCC1CCN(c2c(F)cc3c(=O)c(C(=O)C[N+](=O)[O-])cn(C4CC4)c3c2Cl)C1 (centres unmarked) [Example 53, 1-cyclopropyl-6-fluoro-8-chloro-7-(3-aminomethylpyrrolidin-1-yl)-3-(2-nitroacetyl)-1,4-dihydro-4-oxoquinoline hydrochloride] | < 0.002 | 0.013 | – | 0.025 | 0.195 | 0.049 | 0.013 | 0.013 | < 0.002 | 0.391 | 0.195 | 0.781 | 0.781 | 0.013 | 0.007 | 0.013 | 0.013 | 0.049 | 0.098 | 0.049 | MIC (Escherichia coli 078; [16]): < 0.002 µg/mL |
| CC1CN(c2c(F)cc3c(=O)c(C(=O)C[N+](=O)[O-])cn(C4CC4)c3c2F)CCN1 (centres unmarked) [Example 7, 1-cyclopropyl-6,8-difluoro-7-(3-methylpiperazin-1-yl)-3-(2-nitroacetyl)-1,4-dihydro-4-oxoquinoline hydrochloride] | 0.013 | 0.391 | 0.049 | 0.025 | 0.391 | 0.391 | 0.195 | 0.391 | < 0.002 | 0.781 | 0.391 | 1.56 | 0.781 | 0.098 | 0.391 | 0.391 | 0.391 | 0.781 | 1.56 | – | MIC [12, 17]: 0.781 µg/mL |
| CS(=O)(=O)CC(=O)c1cn(C2CC2)c2c(Cl)c(N3CC4=C(CNC4)C3)c(F)cc2c1=O [Example 47, 1-cyclopropyl-6-fluoro-8-chloro-7-(3,7-diazabicyclo[3.3.0]oct-1,5-en-3-yl)-3-(2-methanesulfonylacetyl)-1,4-dihydro-4-oxoquinoline hydrochloride] | 0.049 | 0.049 | 0.195 | 0.391 | 0.781 | 0.391 | 0.195 | 0.049 | 0.098 | 0.781 | 0.195 | 0.781 | 1.56 | 0.098 | – | 0.391 | 0.391 | 0.781 | 1.56 | – | MIC ([7]; Staphylococcus aureus, 285, 18 h): 0.195 µg/mL; MIC [12, 17]: 0.781 µg/mL |
| CN[C@H]1CCN(c2c(F)cc3c(=O)c(C(=O)C[N+](=O)[O-])cn(C4CC4)c3c2Cl)C1 [Example 62, 1-cyclopropyl-6-fluoro-8-chloro-7-(3-3S-methylaminopyrrolidin-1-yl)-3-(2-nitroacetyl)-1,4-dihydro-4-oxoquinoline hydrochloride] | – | 0.007 | – | 0.007 | 0.025 | 0.013 | 0.007 | 0.007 | < 0.002 | 0.098 | 0.098 | 0.098 | 0.195 | 0.025 | 0.025 | 0.013 | 0.013 | 0.049 | 0.098 | 0.049 | MIC ([1]; Enterobacter cloacae, 1321E, 18 h): 0.007 µg/mL; MIC (Escherichia coli 078; [16]): < 0.002 µg/mL |
| N#CC(C#N)C(=O)c1cn(C2CC2)c2c(Cl)c(N3CCC(N)C3)c(F)cc2c1=O (centres unmarked) [Example 45, 1-cyclopropyl-6-fluoro-8-chloro-7-(3-aminopyrrolidin-1-yl)-3-(2,2-dicyanoacetyl)-1,4-dihydro-4-oxoquinoline hydrochloride] | 0.098 | 0.195 | 0.049 | 0.195 | 1.56 | 0.781 | 0.195 | 0.391 | 0.049 | 3.12 | 0.781 | 3.12 | 6.25 | 0.098 | 1.56 | 1.56 | 0.781 | 6.25 | 25 | 25 | – |
| CNC1CCN(c2c(F)cc3c(=O)c(C(=O)C[N+](=O)[O-])cn(C4CC4)c3c2OC)C1 (centres unmarked) [Example 66, 1-cyclopropyl-6-fluoro-8-methoxy-7-(3-methylaminopyrrolidin-1-yl)-3-(2-nitroacetyl)-1,4-dihydro-4-oxoquinoline hydrochloride] | 0.049 | 0.195 | 0.098 | 0.391 | 0.781 | 0.195 | 0.195 | 0.013 | 0.098 | 1.56 | 1.56 | 1.56 | 1.56 | 0.781 | 0.391 | 0.098 | 0.391 | 0.781 | 1.56 | – | MIC [12, 17]: 0.781 µg/mL |
